Consider 16 compounds from patent US8772343B2, “Chemical compounds” (Pfizer Limited, priority 2010, dated 2014).

For the test, the target named is T1, Nav1.7 (or SCN9A) channel (Homo sapiens, UniProt Q15858).
T1 construct: expressed in transfected cells
T1 sequence (Q15858 whole entry): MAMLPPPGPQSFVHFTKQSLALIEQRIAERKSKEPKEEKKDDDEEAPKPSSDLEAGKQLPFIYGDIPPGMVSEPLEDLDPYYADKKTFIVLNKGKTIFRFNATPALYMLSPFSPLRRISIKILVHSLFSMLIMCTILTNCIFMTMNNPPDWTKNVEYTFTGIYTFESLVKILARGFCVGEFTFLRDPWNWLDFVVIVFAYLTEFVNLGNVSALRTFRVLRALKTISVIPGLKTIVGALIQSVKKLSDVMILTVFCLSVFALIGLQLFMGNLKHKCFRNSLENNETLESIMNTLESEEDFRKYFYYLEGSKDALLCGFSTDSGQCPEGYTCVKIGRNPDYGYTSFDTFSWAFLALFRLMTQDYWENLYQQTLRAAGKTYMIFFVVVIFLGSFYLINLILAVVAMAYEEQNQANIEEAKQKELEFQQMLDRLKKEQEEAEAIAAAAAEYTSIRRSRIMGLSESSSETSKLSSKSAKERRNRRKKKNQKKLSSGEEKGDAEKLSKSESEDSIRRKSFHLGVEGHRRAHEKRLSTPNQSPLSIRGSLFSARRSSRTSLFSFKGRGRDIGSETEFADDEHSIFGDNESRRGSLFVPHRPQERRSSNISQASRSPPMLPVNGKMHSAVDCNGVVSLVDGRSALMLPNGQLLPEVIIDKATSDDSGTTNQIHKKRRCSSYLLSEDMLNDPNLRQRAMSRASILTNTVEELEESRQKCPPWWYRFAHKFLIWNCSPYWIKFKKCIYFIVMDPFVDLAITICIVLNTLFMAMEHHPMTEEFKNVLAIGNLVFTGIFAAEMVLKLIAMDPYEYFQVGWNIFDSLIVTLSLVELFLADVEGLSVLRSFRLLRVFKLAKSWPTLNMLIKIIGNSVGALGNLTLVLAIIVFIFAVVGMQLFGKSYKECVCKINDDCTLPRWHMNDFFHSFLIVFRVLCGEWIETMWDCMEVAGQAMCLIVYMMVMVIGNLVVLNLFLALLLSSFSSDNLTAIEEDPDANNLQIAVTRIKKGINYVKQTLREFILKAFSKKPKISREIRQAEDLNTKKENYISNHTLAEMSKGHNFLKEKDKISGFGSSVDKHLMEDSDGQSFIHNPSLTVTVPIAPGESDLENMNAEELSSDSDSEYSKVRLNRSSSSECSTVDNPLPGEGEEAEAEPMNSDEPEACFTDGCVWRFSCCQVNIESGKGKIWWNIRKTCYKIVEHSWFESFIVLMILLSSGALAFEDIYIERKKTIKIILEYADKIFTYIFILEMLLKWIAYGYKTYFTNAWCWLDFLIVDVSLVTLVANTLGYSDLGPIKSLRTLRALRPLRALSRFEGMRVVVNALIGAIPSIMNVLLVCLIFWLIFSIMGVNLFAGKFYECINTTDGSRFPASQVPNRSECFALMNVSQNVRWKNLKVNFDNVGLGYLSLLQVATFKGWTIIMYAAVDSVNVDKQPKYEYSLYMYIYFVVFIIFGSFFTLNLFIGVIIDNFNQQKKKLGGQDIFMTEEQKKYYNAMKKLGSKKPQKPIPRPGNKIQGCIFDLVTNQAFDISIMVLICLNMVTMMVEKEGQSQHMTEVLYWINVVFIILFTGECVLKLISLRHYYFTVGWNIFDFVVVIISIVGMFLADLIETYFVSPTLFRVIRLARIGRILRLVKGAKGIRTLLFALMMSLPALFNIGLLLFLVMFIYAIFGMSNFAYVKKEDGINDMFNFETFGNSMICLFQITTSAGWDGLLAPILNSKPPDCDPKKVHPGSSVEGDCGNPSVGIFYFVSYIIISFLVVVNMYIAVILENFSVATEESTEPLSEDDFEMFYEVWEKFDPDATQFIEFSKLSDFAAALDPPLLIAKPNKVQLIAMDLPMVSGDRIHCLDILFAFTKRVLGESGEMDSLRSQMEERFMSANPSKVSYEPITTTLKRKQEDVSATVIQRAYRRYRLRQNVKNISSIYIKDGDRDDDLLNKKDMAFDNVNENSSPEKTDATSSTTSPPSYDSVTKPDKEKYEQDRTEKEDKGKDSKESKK
The test can be described thus: Nav1.7 PatchXpress automated whole-cell electrophysiology in HEK cells expressing hSCN9A. In kind it is cell-based. As to conditions: estimated IC50 from single point data, PatchXpress assay, held at V1/2 of inactivation, read-out: Nav1.7 EIC50. The procedure: The ability of the compounds of formula (I) to block the Nav1.7 (or SCN9A) channel were measured using the assay described below.
Human Embryonic Kidney (HEK) cells were transfected with an hSCN9A construct using lipofectamine reagent (Invitrogen), using standard techniques. Cells stably expressing the hSCN9A constructs were identified by their resistance to G-418 (400 μg/ml). Clones were screened for expression using the whole-cell voltage-clamp technique.
HEK cells stably transfected with hSCN9A were maintained in DMEM medium supplemented with 10% heat-inactivated fetal bovine serum and 400 μg/ml G-418 in an incubator at 37° C. with a humidified atmosphere of 10% CO2. For HTS, cells were harvested from flasks by trypsinization and replated in an appropriate multi-well plate (typically 96 or 384 wells/plate) such that confluence would be achieved within 24 hours of plating. For electrophysiological studies, cells were removed from the culture flask by brief trypsinization and re-plated at low density onto glass cover slips. Cells were typically used for electrophysiological experiments within 24 to 72 hours after plating.
Cover slips containing HEK cells expressing hSCN9A were placed in a bath on the stage of an inverted microscope and perfused (approximately 1 ml/minutes) with extracellular solution of the following composition: 138 mM NaCl, 2 mM CaCl2, 5.4 mM KCl, 1 mM MgCl2, 10 mM glucose, and 10 mM HEPES, pH 7.4, with NaOH. […] The osmolarity of the extracellular and intracellular solutions was 300 mOsm/kg and 295 mOsm/kg, respectively. All recordings were made at room temperature (22-24° C.) using AXOPATCH 200B amplifiers and PCLAMP software (Axon Instruments, Burlingame, Calif.).
hSCN9A currents in HEK cells were measured using the whole-cell configuration of the patch-clamp technique (Hamill et al., 1981). Uncompensated series resistance was typically 2 to 5 mega ohms and >85% series resistance compensation was routinely achieved. As a result, voltage errors were negligible and no correction was applied. Current records were acquired at 20 to 50 KHz and filtered at 5 to 10 KHz.
HEK cells stably transfected with hSCN9A were viewed under Hoffman contrast optics and placed in front of an array of flow pipes emitting either control or compound-containing extracellular solutions. All compounds were dissolved in dimethyl sulfoxide to make 10 mM stock solutions, which were then diluted into extracellular solution to attain the final concentrations desired. […] The voltage-dependence of inactivation was determined by applying a series of depolarizing prepulses (8 sec long in 10 mV increments) from a negative holding potential. The voltage was then immediately stepped to 0 mV to assess the magnitude of the sodium current. Currents elicited at 0 mV were plotted as a function of prepulse potential to allow estimation of the voltage at which 50% of the channels were inactivated (midpoint of inactivation or V1/2). Compounds were tested for their ability to inhibit hSCN9A sodium channels by activating the channel with a 20 msec voltage step to 0 mV following an 8 second conditioning prepulse to the empirically determined V1/2. Compound effect (% inhibition) was determined by difference in current amplitude before and after application of test compounds. For ease of comparison, “estimated IC-50” (EIC50) values were calculated from single point electrophysiology data by the following equation, (tested concentration, uM)×(100-% inhibition/% inhibition). Inhibition values<20% and >80% were excluded from the calculation.
Electrophysiological assays were conducted with PatchXpress 7000 hardware and associated software (Molecular Devices Corp). All assay buffers and solutions were identical to those used in conventional whole-cell voltage clamp experiments described above. hSCN9A cells were grown as above to 50%-80% confluency and harvested by trypsinization. […]
Consider `COc1cccnc1-c1cc(C(=O)NS(C)(=O)=O)ccc1Oc1ccc(Cl)cc1` [Example 3, 4-(4-chlorophenoxy)-3-(3-methoxypyridin-2-yl)-N-(methylsulfonyl)benzamide], for which the IC50 was 990 nM.

On to `COc1ncccc1-c1cc(C(=O)NS(C)(=O)=O)ccc1Oc1cc(F)cc(Cl)c1` [Example 53, 4-(3-chloro-5-fluorophenoxy)-3-(2-methoxypyridin-3-yl)-N-(methylsulfonyl)benzamide], for which the IC50 was 120 nM.

On to `Cn1nccc1-c1cc(C(=O)NS(C)(=O)=O)ccc1Oc1ccc(Cl)cc1` [Example 27, 4-(4-chlorophenoxy)-3-(1-methyl-1H-pyrazol-5-yl)-N-(methylsulfonyl)benzamide], for which the IC50 was greater than 3000 nM.

Turning to `COc1ncccc1-c1cc(C(=O)NS(C)(=O)=O)ccc1Oc1ccc(Cl)c(F)c1` [Example 66, 4-(4-chloro-3-fluorophenoxy)-3-(2-methoxypyridin-3-yl)-N-(methylsulfonyl)benzamide], the IC50 was 98 nM.

For `COc1ccccc1-c1cc(C(=O)NS(C)(=O)=O)ccc1Oc1ccc(Cl)cc1` [Example 15, 6-(4-chlorophenoxy)-2′-methoxy-N-(methylsulfonyl)-biphenyl-3-carboxamide], the IC50 was 180 nM.

Take `CCOc1ccccc1Oc1ccc(C(=O)NS(C)(=O)=O)cc1-c1cccnc1OC` [Example 67, 4-(2-ethoxyphenoxy)-3-(2-methoxypyridin-3-yl)-N-(methylsulfonyl)benzamide]: the IC50 is 2800 nM.

`COc1ncccc1-c1cc(C(=O)NS(C)(=O)=O)ccc1Oc1cccc(Cl)c1` [Example 52, 4-(3-chlorophenoxy)-3-(2-methoxypyridin-3-yl)-N-(methylsulfonyl)benzamide]: the IC50 is 460 nM.

For the compound `COc1cc(-c2cc(C(=O)NS(C)(=O)=O)ccc2Oc2ccc(Cl)cc2)ccn1` [Example 45, 4-(4-chlorophenoxy)-3-(2-methoxypyridin-4-yl)-N-(methylsulfonyl)benzamide], the IC50 was 2000 nM.

`CS(=O)(=O)NC(=O)c1ccc(Oc2ccc(Cl)cc2)c(-c2ccccc2F)c1` [Example 18, 6-(4-chlorophenoxy)-2′-fluoro-N-(methylsulfonyl)-biphenyl-3-carboxamide]: the IC50 was 570 nM.

Turning to `COc1cc(Cl)ccc1Oc1cc(F)c(C(=O)NS(C)(=O)=O)cc1-c1cccnc1OC` [Example 4, 4-(4-chloro-2-methoxyphenoxy)-2-fluoro-5-(2-methoxypyridin-3-yl)-N-(methylsulfonyl)benzamide], the IC50 is 4500 nM.

Turning to `CS(=O)(=O)NC(=O)c1ccc(Oc2ccc(Cl)cc2)c(-c2ccc(C(F)(F)F)cc2)c1` [Example 43, 6-(4-chlorophenoxy)-N-(methylsulfonyl)-4′-(trifluoromethyl)biphenyl-3-carboxamide], the IC50 was 630 nM.

Consider `CCc1ccc(Oc2ccc(C(=O)NS(C)(=O)=O)cc2-c2cccnc2OC)cc1` [Example 77, 4-(4-ethylphenoxy)-3-(2-methoxypyridin-3-yl)-N-(methylsulfonyl)benzamide], for which the IC50 was less than 1000 nM.

Regarding `COc1ncccc1-c1cc(C(=O)NS(C)(=O)=O)ccc1Oc1ccc(C)cc1` [Example 73, 3-(2-methoxypyridin-3-yl)-4-(4-methylphenoxy)-N-(methylsulfonyl)benzamide], the IC50 is 170 nM.

For the compound `CCOc1cccc(-c2cc(C(=O)NS(C)(=O)=O)ccc2Oc2ccc(Cl)cc2)c1` [Example 20, 6-(4-chlorophenoxy)-3′-ethoxy-N-(methylsulfonyl)-biphenyl-3-carboxamide], the IC50 is 820 nM.

Turning to `CCOc1ccc(Oc2ccc(C(=O)NS(C)(=O)=O)cc2-c2cccnc2OC)cc1` [Example 83, 4-(4-ethoxyphenoxy)-3-(2-methoxypyridin-3-yl)-N-(methylsulfonyl)benzamide], the IC50 is 490 nM.

`COc1ncccc1-c1cc(C(=O)NS(C)(=O)=O)ccc1Oc1cccc(C(C)C)c1` [Example 54, 4-(3-isopropylphenoxy)-3-(2-methoxypyridin-3-yl)-N-(methylsulfonyl)benzamide]: the IC50 is 120 nM.
